Assay results published in publication PMC11432454, “An Ingenane-Type Diterpene from Euphorbia kansui Promoted Cell Apoptosis and Macrophage Polarization via the Regulation of PKC Signaling Pathways” (International Journal of Molecular Sciences, 2024).
Like-named read-outs stand apart in the source and are kept apart here.

Tests used:
[1] = test system: PKC δ, ERK, and NF-κB in LPS-stimulated RAW264.7 cells; assay: Western blotting of PKC δ, ERK, NF-κB in LPS-stimulated RAW264.7 cells; assay type: cell-based, mouse; details: for level of PKC δ protein / phosphorylation of PKC δ, ERK, and NF-κB: LPS-stimulated RAW264.7, 24 h; for phosphorylation of PKC δ, ERK, and NF-κB: compared to the LPS group, BIS 150 nmol·L^−1
Protocol: (§1) Mouse macrophage cell line RAW264.7 was incubated in a DMEM medium (Gibco, Carlsabad, CA, USA) supplemented with 10% fetal bovine serum (FBS, Gibco), 10,000 U/mL penicillin, and 10,000 μg/mL streptomycin. RAW264.7 cells were treated with 1 μg/mL Lipopolysaccharide (LPS, Sigma, Saint Louis, MO, USA, 12181202) to promote the polarization of macrophages towards M1 or 20 ng/mL interleukin 4 (IL-4, Beyotime, Shanghai, China) to promote the polarization of macrophages towards M2.
(§2) Protein samples were prepared using a RIPA lysis buffer. The concentration of the protein was analyzed using nucleic acid and protein microanalyzer (Molecular Devices, San Jose, CA, USA). SDS-PAGE gel electrophoresis was performed to separate the proteins, which then were electro-transferred onto a PVDF membrane. The membranes were blocked with 5% non-fat milk for 2 h and incubated with primary antibodies and secondary antibodies. The protein bands were detected by the ECL and were exposed to the TANON gel imager (Shanghai, China). The results were analyzed by Image J 180 software.
In order to investigate the effects of PKC activation on the effects of drug treatment, 150 nmoL/L bisindolylmaleimide (BIS) was used. BIS (Beyotime, Shanghai, China) is a potent inhibitor of PKC α/β/γ and PKC δ/ε. This agent was stored at −80 °C in DMSO and cells were pre-incubated with the inhibitor for 4 h prior to being treated with compound A.

[2] = MTT assay, cell viability of RAW264.7 cells; assay type: cell-based; details: mouse, RAW264.7 macrophage cells; half inhibitory of RAW264.7 cells, cell survival, n = 3
Protocol: as §1
(§3) 8 × 10^4 cells/well were incubated in 96T wells for 24 h, and the cells were treated with a drug-containing medium for a specified time. Cells were added 20 μL 0.5% MTT (Sigma, USA) to each well, continued to incubate at 37 °C for 3.5 h, then the medium was discarded and 150 μL of DMSO was added to each well to dissolve the purple formazan. The cells were shaken for 15 min at room temperature and read at 490 nm. Cell viability (%) = ([…])/(ODcontrol − ODblank) × 100%. IC50 (half maximal inhibitory concentration) was calculated by SPSS 27.0 software.

[3] = test system: NO production in LPS-stimulated RAW264.7 cells; assay: cells; assay type: cell-based; details: Mus musculus
Protocol: as §1
(§4) The isolates were evaluated for their inhibitory effect on NO production in LPS-induced RAW264.7 cells. The iNOS inhibitor (NG-monnomycin-L-arginine, L-NMMA) was selected as the positive control. NO was evaluated by absorbance-based detection on nitrite accumulated in the culture medium. The levels of cytokines (IL-1β, IFN-γ, IL-10, TNF-α, and IL-6) in the cell supernatant were determined using an ELISA kit (Novus Biologicals, Centennial, CO, USA) according to the manufacturer’s instructions. The absorbance was read at OD450nm/OD540nm in SpectraMax340PC microplate spectrophotometer (Molecular Devices, San Jose, CA, USA).

A549 cells = assay: MTT assay, cell viability of A549 cells; assay type: cell-based; details: Homo sapiens, A549, read-out: A549 IC50
Protocol: as §3

MCF-7 cells = assay: MTT assay, cell viability of MCF-7 cells; assay type: cell-based; details: Homo sapiens, MCF7, read-out: MCF-7 IC50
Protocol: as §3

HepG2 cells [4] = assay: MTT assay, cell viability of HepG2 cells; assay type: cell-based; details: Homo sapiens
Protocol: as §3

HepG2 cells [5] = assay: Annexin V/PI flow cytometry, apoptosis of HepG2 cells; assay type: cell-based, human; details: 12.5 μmol·L^−1 or 25 μmol·L^−1
Protocol: (§5) Cells with the relevant surface antibodies were incubated at 4 °C for 30 min without light. The stained cells were incubated with Annexin V/PI kits from BD. The experiment was conducted according to the instructions. Data were analyzed on FlowJo V10 software.

[6] = test system: Bax, cleaved caspase 3, cleaved caspase 8 in HepG2 cells; assay: Western blotting of apoptosis-related proteins in HepG2 cells; assay type: cell-based, human; details: 12.5 or 25 μmol·L^−1
Protocol: as §2

[7] = test system: PKC δ and ERK in HepG2 cells; assay: Western blotting of PKC δ and ERK expression and phosphorylation in HepG2 cells; assay type: cell-based, human
Protocol: as §2

[8] = test system: iNOS, COX2, NO, IL-1β, IL-6 in LPS-stimulated RAW264.7 cells; assay: Inflammatory mediators in LPS-stimulated RAW264.7 cells (Western blot, ELISA, immunofluorescence); assay type: cell-based, mouse; details: LPS (1 μg·mL^−1)-stimulated RAW264.7, 10 and 5 μmol·L^−1, 24 h
Protocol: as §1, with “M2. […]” for “M2.”
as §4, with “The iNOS inhibitor (NG-monnomycin-L-arginine, L-NMMA) was selected as the positive control.” left out
Protein samples were prepared using a RIPA lysis buffer. The concentration of the protein was analyzed using nucleic acid and protein microanalyzer (Molecular Devices, San Jose, CA, USA). […] The protein bands were detected by the ECL and were exposed to the TANON gel imager (Shanghai, China). The results were analyzed by Image J 180 software.

[9] = test system: PKC δ, ERK, STAT3, STAT6, ARG-1, CD163, TGF-β, CD206 in IL-4-stimulated RAW264.7 cells; assay: M2 polarization markers in IL-4-stimulated RAW264.7 cells (Western blot, immunofluorescence); assay type: cell-based, mouse
Protocol: as §1
RAW264.7 cells were fixed with 500 μL/well 4% paraformaldehyde for 20 min at room temperature, washed with 1 mL/well PBS five times, then incubated with anti-iNOS, anti-COX-2, or anti-CD206 antibodies at 4 °C overnight, separately. The cells were washed with 1 mL/well PBS five times, then treated with the secondary antibody (FITC-Goat anti-rabbit IgG antibody, 1:200-fold dilution) and DPAI (100 μL/well). […] The stained images were captured under a laser scanning confocal microscope (Nikon A1 AIR MP+, Tokyo, Japan).
as §2

[10] = test system: HepG2 and RAW264.7 cell co-cultivations; assay: Annexin V/PI flow cytometry, HepG2 and RAW264.7 co-cultivation; assay type: cell-based; details: 48 h, compared with the HepG2 cell group
Protocol: as §5

[11] = test system: Bax, cleaved caspase 3 and 8, IL-6, ARG-1, CD206, COX2 in HepG2 and RAW264.7 cell co-cultivations; assay: Western blotting and ELISA in HepG2 and RAW264.7 co-cultivation; assay type: cell-based
Protocol: as §4, §2

[12] = IL-4 (20 ng/mL)-stimulated RAW264.7, 10 μmol·L^−1, 0–60 min
[13] = compared with HepG2 cell group and co-cultivation group

bisindolylmaleimide [reference compound]
level of PKC δ protein [1]: did not | phosphorylation of PKC δ, ERK, and NF-κB [1]: significantly reduced

[H]/N=C(/NC)NCCC[C@H](N)C(=O)O [l-NMMA, NG-monnomycin-l-arginine, reference compound]
CC50 [2]: > 50 µM | IC50 ([3]; RAW264.7, read-out: RAW264.7 IC50 (inhibition of nitric oxide production)): 21.8 ± 3.21 µM

CCCCCCCCCCCC(=O)OC12CC(C)C34C=C(C)C(OC(=O)C(C)C(C)C)C3(O)C(O)C(CO)=CC(C4=O)C1C2(C)C (centres unmarked) [Compound A, 13-hydroxyingenol-3-(2,3-dimethylbutanoate)-13-dodecanoate]
IC50 (A549 cells): 22 ± 5.01 µM | IC50 (MCF-7 cells): 27.1 ± 3.34 µM | IC50 (HepG2 cells [4]; HepG2, read-out: HepG2 IC50): 21 ± 4.53 µM | CC50 [2]: 20.3 ± 3.62 µM | IC50 ([3]; LPS-stimulated RAW264.7 cells, n = 3, read-out: RAW264.7 IC50 (inhibition of nitric oxide production)): 0.57 ± 0.07 µM | apoptosis in HepG2 cells (HepG2 cells [5]): significantly induced apoptosis | expression of Bax, cleaved caspase 3, and cleaved caspase 8 [6]: increased | time of highest level of phosphorylation of PKC δ ([7]; treated 0, 10, 20, 40, 60 min): 10 to 20 min | expression of PKC δ ([7]; versus control group): decreased | phosphorylation of PKC δ (p-PKC δ) and ERK (p-ERK) ([7]; versus control group): downregulated | time of highest point of phosphorylation of PKC δ, ERK, and NF-κB ([1]; LPS (1 μg·mL^−1)-stimulated RAW264.7, compound A 10 μmol·L^−1, 0-60 min): 20 to 30 min | level of PKC δ protein [1]: decreased | phosphorylation of PKC δ, ERK, and NF-κB [1]: significantly reduced | COX2 expression [8]: increased | expression of iNOS and production of cytokines (NO, IL-1β, IL-6) [8]: decrease | PKC δ and ERK activation [9, 12]: promote | STAT6 phosphorylation [9, 12]: inhibited | activation of STAT3 and STAT6 ([9]; IL-4-stimulated RAW264.7, co-treatment 24 h): inhibited | expression of ARG-1, CD163, TGF-β, and CD206 ([9]; IL-4-stimulated RAW264.7 cells): downregulated | apoptosis rates [10]: upregulated | level of Bax, and cleaved caspase 3 and 8 ([11]; 10 μmol·L^−1, 48 h): significantly increase | COX2 expression [11, 13]: increased | expression of ARG-1 and CD206 [11, 13]: decreased | level of IL-6 [11, 13]: decreased

COc1cccc2c1C(=O)c1c(O)c3c(c(O)c1C2=O)C[C@@](O)(C(=O)CO)C[C@@H]3O[C@H]1C[C@H](N)[C@H](O)[C@H](C)O1 [Adr, adriamycin, reference compound]
IC50 (HepG2 cells [4]; HepG2, cell viability, MTT, n = 3, read-out: HepG2 IC50): 4.37 ± 1.21 µM
